Measurements: US10799603B2, “Kinase and/or phosphatase sensing via hydroxyquinoline-sensitized chelates” (Massachusetts Institute of Technology, priority 2018, dated 2020)
Square brackets hold non-standard residues; d marks the D form. Ends that are not written are not given here. * marks the point of attachment. Sox = hydroxyquinoline on cysteine, CN(C)S(=O)(=O)c1ccc(O)c2nc(C*)ccc12; pT = C[C@@H](OP(=O)(O)O)[C@H](N)C(=O)O

Test: Eu(III) titration, time-resolved luminescence, determination of Eu(III) dissociation constants
Assay type: binding
Details: 5 micromolar peptide, 30° C., 50 mM HEPES pH 7.5, 100 mM NaCl; averages of three separate experiments
Protocol: The luminescence experiments were conducted as follows. Time-resolved emission measurements were made with a CLARIOstar® spectrofluorimeter. The spectra were recorded between 410 and 700 nm, and all measurements were made using the following settings: excitation wavelength 360 nm; delay time 0.4 ms; stepwidth 1.0 nm; emission bandwidth 8 nm; gain: 3000; focal height […]; 20 flashes per well. All of the spectra were corrected for background luminescence by subtracting a blank scan of the solvent solution.
Determination of Eu(III) dissociation constants (KD). Eu(III) titrations were performed at 30° C. in a buffer containing 50 mM HEPES buffer, pH 7.5, 100 mM NaCl, and 5 micromolar of the of the phosphopeptide Sox-P (5 micromolar) or the corresponding unphosphorylated biosensor Sox-OH (5 micromolar) in a total volume of 200 microliters. Aliquots of EuCl3 stock solutions were added (for the final EuCl3 concentration in the well to be in the range of approximately 2.5-6000 micromolar) and the data was recorded in the fluorometer. Data were fit with the program GraFit 7. The reported values are averages of three separate experiments.

| Kd | Substance |
| --- | --- |
| 18.4 µM | LVEPLT*PC(Sox)GEA (LVEPL[pT]PC(Sox)GEA) [Sox-P, phosphopeptide with Sox hydroxyquinoline attached to the S of the cysteine] |
| 1570 µM | LVEPLTPC(Sox)GEA [Sox-OH, unphosphorylated biosensor peptide with Sox hydroxyquinoline attached to the S of the cysteine] |
